Data reported in patent US4680397A, “Apovincaminol derivative” (Richter Gedeon Vegyeszeti Gyar Rt., priority 1984, dated 1987).
Counter-ions that a name gives are not always drawn.

Tests used:
Format in all cases: biochemical
[1] = target: phosphodiesterase isolated from rat brain; assay: phosphodiesterase inhibition, enzyme isolated from rat brain; settings: inhibitor concentration giving 50% decrease of enzyme activity, 20 minutes incubation, read-out: 150(μmoles) rat brain
Experimental: (§1) The model experiments were performed by means of phosphodiesterase isolated from animal tissues (rat brain, cattle brain, cattle heart). […] From the test compounds a 1 mmole stock solution was prepared with aqueous hydrochloric acid solution and different amounts of the stock solution were added to the enzyme preparates corresponding to 5×10^-6, 1×10^-5 and 5×10^-5 mole/lit. of the test compound. A solution of papaverine used as reference compound is added to the enzyme preparate in an analogous manner.
(§2) The activity of the solutions of the test compound and papaverine was expressed in percents of the control (enzyme solution without any inhibitory substance, 100%).
(§3) The tests on an enzyme isolated from cattle brain and cattle heart, respectively were carried out in an analogous way.

[2] = target: phosphodiesterase isolated from cattle brain; assay: phosphodiesterase inhibition, enzyme isolated from cattle brain; settings: inhibitor concentration giving 50% decrease of enzyme activity, 20 minutes incubation, read-out: 150(μmoles) cattle brain
Experimental: as §1, §2, §3

[3] = target: phosphodiesterase isolated from cattle heart; assay: phosphodiesterase inhibition, enzyme isolated from cattle heart; settings: inhibitor concentration giving 50% decrease of enzyme activity, 20 minutes incubation, read-out: 150(μmoles) cattle heart
Experimental: as §1, §2, §3

IC50 [1] | IC50 [2] | IC50 [3] | SMILES
120 µM | 100 µM | 60 µM | CCC12C=C(COC(C)=O)n3c4c(c5ccccc53)CCN(CC(O)C1)C42 (stereo not drawn) [compound 1041, 18β-Hydroxy-apovincaminol acetate]
5 µM | 5 µM | 2 µM | CCC12C=C(COC(=O)c3cc(OC)c(OC)c(OC)c3)n3c4c(c5ccccc53)CCN(CC(O)C1)C42 (stereo not drawn) [compound 1079, 18β-Hydroxy-apovincaminol 3',4',5'-trimethoxybenzoate]

The next lines start with the molecule.

SMILES | IC50 [1] | IC50 [2] | IC50 [3]
CCC12C=CCN3CCc4c(n(c5cccc([N+](=O)[O-])c45)C(COC(C)=O)=C1)C32 (centres unmarked) [compound 886, 9-Nitro-17,18-dehydroapovincaminol acetate] | 50 µM |  | 
CCC12C=CCN3CCc4c(n(c5cc([N+](=O)[O-])ccc45)C(COC(C)=O)=C1)C32 (centres unmarked) [compound 887, 11-nitro-17,18-dehydro-apovincaminol acetate] | 30 µM |  | 
CCC12C=CCN3CCc4c(n(c5cccc([N+](=O)[O-])c45)C(COC(=O)c4cc(OC)c(OC)c(OC)c4)=C1)C32 (centres unmarked) [compound 888, 9-Nitro-17,18-dehydroapovincaminol 3',4',5'-trimethoxybenzoate] | 30 µM | 10 µM | 5 µM
CCC12C=CCN3CCc4c(n(c5cc([N+](=O)[O-])ccc45)C(COC(=O)c4cc(OC)c(OC)c(OC)c4)=C1)C32 (centres unmarked) [compound 889, 11-nitro-17,18-dehydro-apovincaminol 3',4',5'-tri-methoxybenzoate] | 10 µM | 5 µM | 2 µM
CCC12C=C(COC(C)=O)n3c4c(c5ccccc53)CCN(CC(OC(C)=O)C1)C42 (stereo not drawn) [compound 956, 18β-Acetoxy-apovincaminol acetate] | 30 µM | 30 µM | 25 µM
COc1ccc(Cc2nccc3cc(OC)c(OC)cc23)cc1OC [papaverin hydrochloride, reference compound] | 120 µM | 100 µM | 50 µM
